Data published in patent publication US7575930B2, “Method for analyzing oligosaccharides from blood plasma” (priority 2005, dated 2009).

Key:
[1] = Monitoring of the plasma concentration of 3 octasaccharides in beagle dogs after subcutaneous administration (plasma filtration + anion-exchange HPLC); type: in vivo, male dogs of the beagle breed; details: 0.5 mg/kg each
Description: (§1) A plasma sample with a volume of between 100 and 1000 μl is withdrawn and, if appropriate, the internal standard is added to the latter.
(§2) After homogenization, the resulting solution is introduced into a 30 kD Ultrafree 05 ultrafiltration cartridge (Millipore) rinsed beforehand with 250 μl of water by centrifuging at 10 000 rev/min for 5 minutes. The plasma is introduced into the upper part of the cartridge once or twice, if the amounts to be filtered are greater than 500 μl.
(§3) The cartridge is centrifuged at 10 000 rev/min for between 1 and 2 hours and then the filtrate is withdrawn. If appropriate, the second part of the plasma to be filtered is introduced into the upper part of the cartridge and the latter is again centrifuged. The exact amount of plasma introduced will have been weighed. The cartridge is centrifuged until the protein residue in the upper part of the cartridge represents no more than approximately 10% of the initial part.
(§4) The filtrate is withdrawn and 210 μl of 3M KCl per ml of plasma filtered are added to the concentrate.
(§5) After homogenization, the cartridge is centrifuged at 10 000 rev/min for between 1 and 4 hours. The cartridge is centrifuged until the protein residue in the upper part of the cartridge represents no more than approximately 10% of the initial part.
(§6) The second filtrate is withdrawn and 210 μl of 3M KCl per ml of plasma filtered are added a second time to the concentrate.
(§7) The third filtrate is withdrawn and 250 μl of water per ml of plasma filtered are added.
(§8) The filtrates are combined and diluted 5 fold in water, and the whole is injected directly in anion-exchange HPLC. Immediately before injection, the pH of the injected solution is adjusted to 3 by addition of 1N HCl.
(§9) The filtered plasma is analyzed by anion-exchange HPLC.
(§10) The columns used are IonPAc As11 columns (Dionex), with a length of 25 cm and an internal diameter of 2 mm. The detector used is a UV spectrophotometer equipped with an array of diodes.
(§11) The whole of the […] is injected after adjustment of the pH to 3 by addition of N HCl. The flow rate chosen is 0.22 ml/min; the column temperature is 40° C.
(§12) Elution is carried out in gradient mode. The two solutions used are:
(§13) Solvent A: NaH2PO4 2.5 mM, brought to pH 2.9 by addition of H3PO4
(§14) Solvent B: NaClO4 1N, NaH2PO4 2.5 mM, brought to pH 3.0 by addition of H3PO4
(§15) The elution gradient is as follows:
(§16) T=0 min: % B=3; T=40 min: % B=60; T=60 min: % B=80
The evolution of a mixture of three octasaccharides in the blood of male dogs of the beagle breed is monitored. These 3 octasaccharides, symbolized ΔIIaIIsIsIs, ΔIsIIaIIsIs and ΔIIaIIsIsIs^1,6-anhydro, are the main affinity octasaccharides of the octasaccharide fractions of Lovenox®.
The mixture is administered subcutaneously to 3 male dogs of the beagle breed at a target dose with regard to each of these 3 constituents of 0.5 mg/kg. The administration solution is a 0.9% NaCl solution of the mixture of the 3 octasaccharides at the target concentration of 0.5 mg/ml. Blood samples of 5 ml are withdrawn at the times 0, 0.25 h, 0.5 h, 1 h, 2 h, 4 h, 6 h, 8 h, 24 h, 30 h and 48 h after administration. The blood samples withdrawn are collected in tubes containing 400 μl of a CTAD (citrate, theophylline, adenosine, dipyridamole) mixture. After homogenization, the solution is centrifuged at 3000 g at 15° C. for 15 min. The plasma supernatant is recovered and stored at −20° C. until use.
For the treatment of the plasma before HPLC injection, approximately 1 ml of plasma is withdrawn and weighed, to which 50 μl of a solution of the internal standard at a concentration of approximately 0.02 g/l are added.
The internal standard is chosen so that it is structurally as close as possible to the products to be analyzed. Its structure is given below.
The tetrasaccharide used makes it possible to correct the potentional influence of the variations in the extraction yield.
The plasma is treated and analyzed by HPLC.

[2] = Monitoring of the plasma concentration of the main oligosaccharides of a VLMWH in human volunteers (plasma filtration + anion-exchange HPLC); type: in vivo
Description: as §1, §2, §3, §4, §5, §6, §7, §8, §9, §10, §11, §12, §13, §14, §15, §16
A VLMWH with an average molecular weight of 2500 Da is administered at the target dose of 1.4 mg/kg to human volunteers. Blood samples are withdrawn at the times 0, 0.25 h, 0.5 h, 0.75 h, 1 h, 1.25 h, 1.5 h, 2 h, 2.5 h, 3 h, 3.5 h, 4 h, 4.5 h, 5 h, 6 h, 7 h, 8 h, 9 h, 10 h, 12 h, 14 h and 24 h after administration.
As the VLMWH used is a complex mixture of oligosaccharides, the study was limited to certain components chosen from this mixture.

ATIII = ATIII (Homo sapiens, UniProt P01008); test: Affinity for ATIII; type: binding
Chain of ATIII (P01008 33-464, species assumed): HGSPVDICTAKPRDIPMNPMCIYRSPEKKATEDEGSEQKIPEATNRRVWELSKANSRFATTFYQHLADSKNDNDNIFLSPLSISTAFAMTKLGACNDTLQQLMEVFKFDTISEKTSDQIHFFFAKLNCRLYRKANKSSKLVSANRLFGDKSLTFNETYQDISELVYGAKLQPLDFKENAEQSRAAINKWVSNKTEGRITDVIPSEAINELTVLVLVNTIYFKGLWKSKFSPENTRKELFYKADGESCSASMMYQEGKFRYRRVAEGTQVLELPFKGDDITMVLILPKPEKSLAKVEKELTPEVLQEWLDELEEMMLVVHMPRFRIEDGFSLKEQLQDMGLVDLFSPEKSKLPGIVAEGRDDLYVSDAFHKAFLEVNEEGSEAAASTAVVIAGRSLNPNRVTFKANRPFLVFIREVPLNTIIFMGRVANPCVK

## CC(=O)NC1C(OC2C(C(=O)O)OC(OC3C(COS(=O)(=O)O)OC(OC4C(C(=O)O)OC(OC5C(COS(=O)(=O)O)OC(OC6C(C(=O)O)OC(OC7C(COS(=O)(=O)O)OC(O)C(NS(=O)(=O)O)C7O)C(OS(=O)(=O)O)C6O)C(NS(=O)(=O)O)C5O)C(OS(=O)(=O)O)C4O)C(NS(=O)(=O)O)C3OS(=O)(=O)O)C(O)C2O)OC(COS(=O)(=O)O)C(OC2OC(C(=O)O)=CC(O)C2O)C1O (centres unmarked) [ΔIIaIIsIsIs]
[1]; Dog 1, 0 h after subcutaneous administration
  plasma concentration: 0 nM
[1]; Dog 1, 0.25 h after subcutaneous administration
  plasma concentration: 40 nM
[1]; Dog 1, 0.5 h after subcutaneous administration
  plasma concentration: 180 nM
[1]; Dog 1, 1 h after subcutaneous administration
  plasma concentration: 330 nM
[1]; Dog 1, 2 h after subcutaneous administration
  plasma concentration: 590 nM
[1]; Dog 1, 4 h after subcutaneous administration
  plasma concentration: 470 nM
[1]; Dog 1, 6 h after subcutaneous administration
  plasma concentration: 360 nM
[1]; Dog 1, 8 h after subcutaneous administration
  plasma concentration: 280 nM
[1]; Dog 1, 24 h after subcutaneous administration
  plasma concentration: 40 nM
[1]; Dog 1, 30 h after subcutaneous administration
  plasma concentration: 20 nM
[1]; Dog 1, 48 h after subcutaneous administration
  plasma concentration: 0 nM
[1]; Dog 2, 0 h after subcutaneous administration
  plasma concentration: 0 nM
[1]; Dog 2, 0.25 h after subcutaneous administration
  plasma concentration: 50 nM
[1]; Dog 2, 0.5 h after subcutaneous administration
  plasma concentration: 100 nM
[1]; Dog 2, 1 h after subcutaneous administration
  plasma concentration: 200 nM
[1]; Dog 2, 2 h after subcutaneous administration
  plasma concentration: 320 nM
[1]; Dog 2, 4 h after subcutaneous administration
  plasma concentration: 300 nM
[1]; Dog 2, 6 h after subcutaneous administration
  plasma concentration: 370 nM
[1]; Dog 2, 8 h after subcutaneous administration
  plasma concentration: 260 nM
[1]; Dog 2, 24 h after subcutaneous administration
  plasma concentration: 40 nM
[1]; Dog 2, 30 h after subcutaneous administration
  plasma concentration: 10 nM
[1]; Dog 2, 48 h after subcutaneous administration
  plasma concentration: 0 nM
[1]; Dog 3, 0 h after subcutaneous administration
  plasma concentration: 0 nM
[1]; Dog 3, 0.25 h after subcutaneous administration
  plasma concentration: 60 nM
[1]; Dog 3, 0.5 h after subcutaneous administration
  plasma concentration: 170 nM
[1]; Dog 3, 1 h after subcutaneous administration
  plasma concentration: 240 nM
[1]; Dog 3, 2 h after subcutaneous administration
  plasma concentration: 330 nM
[1]; Dog 3, 4 h after subcutaneous administration
  plasma concentration: 450 nM
[1]; Dog 3, 6 h after subcutaneous administration
  plasma concentration: 360 nM
[1]; Dog 3, 8 h after subcutaneous administration
  plasma concentration: 290 nM
[1]; Dog 3, 24 h after subcutaneous administration
  plasma concentration: 40 nM
[1]; Dog 3, 30 h after subcutaneous administration
  plasma concentration: 20 nM
[1]; Dog 3, 48 h after subcutaneous administration
  plasma concentration: 0 nM
[2]; 0 h after administration of VLMWH (2500 Da) 1.4 mg/kg
  plasma concentration: 0 nM
[2]; 0.25 h after administration of VLMWH (2500 Da) 1.4 mg/kg
  plasma concentration: 10 nM
[2]; 0.5 h after administration of VLMWH (2500 Da) 1.4 mg/kg
  plasma concentration: 30 nM
[2]; 0.75 h after administration of VLMWH (2500 Da) 1.4 mg/kg
  plasma concentration: 20 nM
[2]; 1 h after administration of VLMWH (2500 Da) 1.4 mg/kg
  plasma concentration: 30 nM
[2]; 1.25 h after administration of VLMWH (2500 Da) 1.4 mg/kg
  plasma concentration: 40 nM
[2]; 1.5 h after administration of VLMWH (2500 Da) 1.4 mg/kg
  plasma concentration: 40 nM
[2]; 2 h after administration of VLMWH (2500 Da) 1.4 mg/kg
  plasma concentration: 40 nM
[2]; 2.5 h after administration of VLMWH (2500 Da) 1.4 mg/kg
  plasma concentration: 30 nM
[2]; 3 h after administration of VLMWH (2500 Da) 1.4 mg/kg
  plasma concentration: 30 nM
[2]; 3.5 h after administration of VLMWH (2500 Da) 1.4 mg/kg
  plasma concentration: 40 nM
[2]; 4 h after administration of VLMWH (2500 Da) 1.4 mg/kg
  plasma concentration: 20 nM
[2]; 4.5 h after administration of VLMWH (2500 Da) 1.4 mg/kg
  plasma concentration: 40 nM
[2]; 5 h after administration of VLMWH (2500 Da) 1.4 mg/kg
  plasma concentration: 30 nM
[2]; 6 h after administration of VLMWH (2500 Da) 1.4 mg/kg
  plasma concentration: 20 nM
[2]; 7 h after administration of VLMWH (2500 Da) 1.4 mg/kg
  plasma concentration: 40 nM
[2]; 8 h after administration of VLMWH (2500 Da) 1.4 mg/kg
  plasma concentration: 20 nM
[2]; 9 h after administration of VLMWH (2500 Da) 1.4 mg/kg
  plasma concentration: 20 nM
[2]; 10 h after administration of VLMWH (2500 Da) 1.4 mg/kg
  plasma concentration: 20 nM
[2]; 12 h after administration of VLMWH (2500 Da) 1.4 mg/kg
  plasma concentration: 30 nM
[2]; 14 h after administration of VLMWH (2500 Da) 1.4 mg/kg
  plasma concentration: 20 nM
[2]; 24 h after administration of VLMWH (2500 Da) 1.4 mg/kg
  plasma concentration: 10 nM
ATIII
  affinity for ATIII: high affinity for ATIII
